Laboratory results reported in US10300026B2, “Use of dihydroxyacetone in preparation of anti-cancer medicaments” (priority 2015, dated 2019).
pIC50: −log10 of the molar value. Where two headings read alike, the source gives them in different places.

Columns and labels:
T24 = experiment: CellTiter-Glo cell viability, T24 (human bladder transitional cell carcinoma cell); format: cell-based
Method: (§1) 15 g of the commercially available 1,3-dihydroxyacetone in the solid powder form was added into 100 mL of 5% glucose (infusion bottle), then filled into 100 bottles.
(§2) After digesting the cells and counting (counting suspended cells directly), the cells were diluted to 1.25×10^5 cells/ml, inoculated into a 384-well plate (5000 cells/well) with 40 μl per well, centrifuged at 1500 rpm for 1 min, placed into the incubator and incubated overnight.
(§3) The medicaments were diluted in gradient with a 5% glucose solution to 5×, respectively. Each well was dosed with 10 μl medicament, with 4 wells (n=4) for each concentration. The cell viability was measured with Luminescence Cell Viability Assay kit after incubating for 72 hours in an incubator.
(§4) CellTiter-Glo reagent was added into each well, the volume of which is the same as that of medium. It was shaked on a shaker for 5 min, centrifuged at 1500 rpm for 1 min, and incubated in the dark at room temperature for 15 min. Then the chemiluminescence was detected with BMG PHERAstar.
(§5) The cell viability was calculated by using the following formula: Cell viability (Viability %)=100%×(LUMsample to be measured−LUMblank)/(LUMsolvent control−LUMblank)
(§6) The curve of Log[concentration] versus cell viability was fitted using Prism 6 to calculate IC50 of sample for each cell line.

KB = experiment: CellTiter-Glo cell viability, KB (human oral cancer cell line); format: cell-based
Method: as §1, §2, §3, §4, §5, §6

H460 = experiment: CellTiter-Glo cell viability, H460 (human large cell lung cancer cell line); format: cell-based
Method: as §1, §2, §3, §4, §5, §6

SW620 = experiment: CellTiter-Glo cell viability, SW620 (human colon cancer cell); format: cell-based
Method: as §1, §2, §3, §4, §5, §6

Jurkat = experiment: CellTiter-Glo cell viability, Jurkat (human T lymphoblastic leukemia cell); format: cell-based
Method: as §1, §2, §3, §4, §5, §6

DU145 = experiment: CellTiter-Glo cell viability, DU145 (human prostate cancer cell); format: cell-based
Method: as §1, §2, §3, §4, §5, §6

[1] = system: human large cell lung cancer H460 cell transplantation tumor; experiment: H460 cell transplantation tumor model in naked mice; format: in vivo, Balb/c-nude naked mice; settings: for TV (mm^3) D1 / Body weight (g) D1: D1 (first day of administration); for Effect of tumor inhibition: vs blank; for Tumor Weight TW: tumors taken out at sacrifice on 22th day; for Tumor Weight Inhibition Rate IR (%): vs blank control group tumor weight
Method: Naked mice were subcutaneously inoculated with H460 cells (human large cell lung cancer cell line). When tumors grew to about 100 mm^3, 36 naked mice with similar tumor volume and good shape were selected from 70 naked mice, divided into 6 groups with 6 animals in each group;
Cisplatin: 4 mg/kg, volume of injection was 0.1 mL/10 g, i.p, administration once every 5 days, three weeks in total;
Cisplatin group: 4 mg/kg, volume of injection was 0.1 mL/10 g, i.p, administration once every 5 days, three weeks in total;
Blank group: 0.9% sodium chloride injection, mode of administration was same as DHA group.
3.1.3 Naked mice were inoculated subcutaneously at the right side of back, 0.1 mL/mouse, i.e. each naked mouse was inoculated 2×10^6 cells;
3.2.1 When tumors grew to about 100 mm^3, 36 naked mice with similar tumor volume and good shape were selected from 70 naked mice, and divided into 6 groups with 6 animals in each group.
The mixture was refrigerated at 4° C. when not used. […] 4 mL of 0.6 mg/mL cisplatin solution were measured and added with 2.0 mL physiological saline to formulate a 0.4 mg/mL (4 mg/kg) cisplatin solution. The solution was refrigerated at 4° C. when not used.
The tumor volume and body weight were measured three times per week from the first day of administration. Naked mice were sacrificed on 22th day. The tumors were taken out, weighed and photographed. The tumor inhibition rate was calculated.
The calculation formula is: TV=½×a×b^2, where a and b represents length and width, respectively.
The calculation formula is: RTV=TVt/TV1, where TV1 is a tumor volume when being caged and administrated (i.e., d1), TVt is a tumor volume at each measurement.
The calculation formula is: […]
TRTV: RTV of treatment group; CRTV: RTV of blank control group.
TTW: tumor weight of treatment group; CTW: tumor weight of blank control group; TW: tumor weight.

MDA-MB-231 = experiment: CellTiter-Glo cell viability, MDA-MB-231 (human breast cancer cell); settings: 72 hours, n=4, read-out: IC50 calculated based on the concentration of dihydroxyacetone
Method: as §1, §2, §3, §4, §5, §6

[2] = at pH 6.0; cited from earlier work
[3] = H460 tumor naked mice, cisplatin 4 mg/kg i.p. once every 5 days, DHA p.o. 0.1 mL/10 g bid
[4] = D20, H460 tumor naked mice, cisplatin 4 mg/kg i.p. once every 5 days, DHA p.o. 0.1 mL/10 g bid
[5] = cisplatin 4 mg/kg i.p. once every 5 days, DHA p.o. 0.1 mL/10 g bid
[6] = Homo sapiens, 72 h, read-out: IC50 calculated based on the concentration of dihydroxyacetone

With `N.N.[Cl][Pt][Cl]` [DDP, cis-diammine platinum dichloride, reference compound] as the compound, how does the pIC50 (T24; T24, 72 hours, n=4, read-out: IC50) read?
Its pIC50 is 5.21.

What about the pIC50 (KB; 72 hours, n=4, read-out: IC50) of the same compound?
The pIC50 was 5.70.

What about the pIC50 (H460; H460, 72 hours, n=4, read-out: IC50) of the same compound?
Its pIC50 is 5.78.

What about the pIC50 (SW620; SW620, 72 hours, n=4, read-out: IC50) of the same compound?
The pIC50 was 4.61.

And the pIC50 (Jurkat; 72 hours, n=4, read-out: IC50)?
The pIC50 was 6.18.

What about the pIC50 (DU145; DU145, 72 hours, n=4, read-out: IC50) of the same compound?
The pIC50 was 5.34.

And the “TV (mm^3) D1” value ([1]; H460 tumor naked mice)?
The value was 90.30 ± 5.61 mm^3.

And the “Body weight (g) D1” value [1, 3]?
Its value is 21.1 ± 0.9 g.

What about the “Body weight (g) D20” value [1, 4] of the same compound?
The value was 17.6 ± 0.7 g.

What about the “TV (mm^3) D20” value [1, 4] of the same compound?
The value was 972.1 ± 289.5 mm^3.

What about the “Body temperature” value ([1]; H460 tumor naked mice) of the same compound?
The value was “decreased”.

And the “Effect of tumor inhibition” value ([1]; H460 tumor naked mice)?
The value was “significant effect of tumor inhibition”.

And the “Body weight during the whole test” value ([1]; H460 tumor naked mice, whole test)?
The value was “decreased significantly”.

What about the “Body weight decrease at the end of the test” value ([1]; end of the test, H460 tumor naked mice) of the same compound?
Its value is “about 16.7%”.

And the “Tumor Weight TW” value [1, 5]?
Its value is 0.65 ± 0.23 g.

And the “Tumor Weight Inhibition Rate IR (%)” value [1, 5]?
Its value is 44.6%.

With `O=C(CO)CO` [Dihydroxyacetone, 1,3-dihydroxyacetone] as the compound, how does the pIC50 (T24; Homo sapiens, T-24, 72 h, read-out: IC50 calculated based on the concentration of dihydroxyacetone) read?
The pIC50 was 2.12.

And the pIC50 (KB; [6])?
The pIC50 was 2.12.

What about the pIC50 (MDA-MB-231) of the same compound?
The pIC50 was 2.10.

And the Stability [2]?
The Stability was “stable”.

And the pIC50 (H460; Homo sapiens, NCI-H460, 72 h, read-out: IC50 calculated based on the concentration of dihydroxyacetone)?
Its pIC50 is 2.42.

What about the pIC50 (SW620; Homo sapiens, SW-620, 72 h, read-out: IC50 calculated based on the concentration of dihydroxyacetone) of the same compound?
The pIC50 was 2.07.

And the pIC50 (Jurkat; [6])?
The pIC50 was 2.74.

And the pIC50 (DU145; Homo sapiens, DU-145, 72 h, read-out: IC50 calculated based on the concentration of dihydroxyacetone)?
Its pIC50 is 2.11.

What about the “TV (mm^3) D1” value ([1]; H460 tumor naked mice) of the same compound?
Its value is 90.47 ± 9.91 mm^3.

What about the “Body weight (g) D1” value [1, 3] of the same compound?
Its value is 21.4 ± 0.7 g.

What about the “Body weight (g) D20” value [1, 4] of the same compound?
The value was 23.7 ± 1.3 g.

What about the “TV (mm^3) D20” value [1, 4] of the same compound?
The value was 2300.4 ± 585.1 mm^3.

What about the “RTV D20 (relative tumor volume)” value ([1]; D20, RTV=TVt/TV1, cisplatin 4 mg/kg i.p. once every 5 days, DHA p.o. 0.1 mL/10 g bid) of the same compound?
The value was 25.5 ± 6.2.

What about the “Effect of tumor inhibition” value ([1]; H460 tumor naked mice) of the same compound?
Its value is “did not exhibit a significant effect of tumor inhibition”.

What about the “T/C (%) relative tumor proliferation rate” value ([1]; final, vs blank control group RTV, cisplatin 4 mg/kg i.p. once every 5 days, DHA p.o. 0.1 mL/10 g bid) of the same compound?
The value was 142.0%.

What about the Toxic reaction ([1]; mouse, in vivo) of the same compound?
The Toxic reaction was “no toxic reaction”.

What about the “Tumor Weight TW” value [1, 5] of the same compound?
The value was 1.76 ± 0.44 g.

What about the “Tumor Weight Inhibition Rate IR (%)” value [1, 5] of the same compound?
Its value is −50.6%.
